Patent publication US20200131270A1, “COMBINATION USE OF INHIBITOR TARGETING PD-1/PD-L1 AND COX-2 INHIBITOR” (priority 2017, published 2020)

How the values were obtained:
canine PBMCs = assay: Cytokine production from canine PBMCs stimulated with SEB and anti-CD28 (ELISA); assay type: cell-based; conditions: PGE2 2.5 μM; SEB + anti-CD28, 3 days
BLV provirus = assay type: cell-based, cattle
[1] = test system: PBMCs derived from uninfected cattle; assay: PBMC culture under anti-CD3/anti-CD28 stimulation: cell proliferation (CFSE) and cytokine production (ELISA); conditions: 3 days
[2] = test system: PBMCs derived from uninfected cattle; assay: PD-L1 protein expression in bovine PBMCs (flow cytometry); assay type: cell-based; conditions: PGE2 added, 24 hours
[3] = test system: PBMCs derived from uninfected cattle; assay: mRNA expression in bovine PBMCs (real-time PCR); assay type: cell-based
Description: Using the synthesized cDNA as a template, real-time PCR was performed with LightCycler480 System II (Roche) in a 10 μl reaction solution containing SYBR Premix DimerEraser (TaKaRa) and 3 pmol each of the primers specific to individual genes. Then, changes in expression levels of individual genes were observed. After 45 cycles of thermal denaturation, annealing and extension, the temperature was raised from 65° C. to 95° C. at 0.1° C./sec for melting curve analysis. The melting temperatures of amplified products were measured to confirm specificity. For each sample, expression levels of genes ACTB and GAPDH were quantified as internal standards. […] Then, real-time PCR was performed using PDL1 specific primers.

[4] = PGE2 25 nM, 250 nM and 2,500 nM

CCCCC[C@H](O)/C=C/[C@H]1[C@H](O)CC(=O)[C@@H]1C/C=C\CCCC(=O)O [PGE2, prostaglandin E2]
significantly increased: expression of PD-L1 protein [2] | expression level of Foxp3 ([3]; PGE2 2,500 nM, 3 days) | expression level of IL-10 ([3]; PGE2 2,500 nM, 3 days) | expression level of STAT3 ([3]; PGE2 2,500 nM, 3 days) | expression level of TGFβ1 ([3]; PGE2 2,500 nM, 3 days) | expression of PD-L1 mRNA ([3]; PGE2 added, 24 hours)
increase significantly: BLV provirus load in PBMCs (BLV provirus)
significantly inhibited: IFN-γ production [1, 4] | proliferation of CD4^+ cells [1, 4] | proliferation of CD8^+ cells [1, 4] | TNF-α production ([1]; PGE2 2,500 nM)
significantly decreased: IFN-γ production from canine PBMCs (canine PBMCs) | IL-2 production from canine PBMCs (canine PBMCs) | expression level of IFNγ ([3]; PGE2 2,500 nM, 3 days) | expression level of IL-2 ([3]; PGE2 2,500 nM, 3 days) | expression level of TNFα ([3]; PGE2 2,500 nM, 3 days)
